For assay [1], the target named is T1, HLA A*02:01 class I molecules (Homo sapiens, UniProt P04439, D140Y/D185E/D98H/E176V/E277Q/G131W/G231S/I119V/I121R/I166T/I218V/L300P/L318F/N151K/N90K/P208A/P217A/Q86G/Q94H/R138H/R169H/T345S).
T1 construct: endogenous in cells; host or cells: JY (EBV-transformed homozygous B cell line)
The assay is described as follows: MHC-peptide binding assay, inhibition of binding of radiolabeled standard peptide. Conditions: inhibition of binding of radiolabeled HBV core 18–27 analogue […]; purified MHC from JY cells; six concentrations, three or more independent assays; read-out: Measured affinity IC50. The text has this: Quantitative assays to measure the binding of peptides to HLA A*02:01 class I molecules are based on the inhibition of binding of a radiolabeled standard peptide (HBV core 18–27 analogue, […]). MHC molecules were purified by affinity chromatography from the EBV transformed homozygous cell line JY, and assays performed, as described previously. […] Under the conditions used, where [radiolabeled probe] < [MHC] and IC50 ≥ [MHC], the measured IC50 values are reasonable approximations of the true Kd values.

The test system of assay [2] is PBMCs from HLA-A*0201+ volunteers. The assay is described as follows: Ex vivo IFN-γ ELISpot assay. In kind it is cell-based, human. Conditions: individual peptides at 10 µg/ml; 20 h, 37°C. The text has this: We recruited 21 HLA-A*0201 positive volunteers with a history of primary VZV infection, detectable VZV IgG but no previous VZV vaccination or clinical evidence of recent reactivation (Table 1). The median age was 63 years (range 25–77 years). Epitope predictions in the context of HLA-A*0201 were made using the Immune Epitope Database consensus prediction tool with the complete published VZV sequences (Table S1). The top 0.5% of 9- and 10-mers (367 peptides) were synthesized and peptide pools screened by IFN-γ ELISpot using PBMCs from each subject. In 15/21 subjects, the same peptide pool induced positive responses (Figure 1a). […] Tetramer+ cells were detected in 12/21 subjects with frequencies ranging from 0.01% to 1.8% of CD8 T cells (Figure 1d). ILI was thus identified as an immunodominant HLA-A*0201-restricted class I epitope.
Gamma interferon (IFN-γ) enzyme-linked immunospot (ELISpot) assays were performed using 2×10^5 PBMC stimulated with peptide pools (10 µg/ml/peptide). Peptide pools yielding positive responses were deconvoluted, by testing individual peptides at 10 µg/ml. After 20 h of incubation at 37°C, plates were developed, and responses were calculated. Positive wells contained ≥20 spot-forming units (SFU)/10^6 cells and a P value of ≤0.05 using a Student's t test in at least 2 experiments.

Ends that are not written are not given here.

For orientation: IC50 means the concentration needed to halve the response being measured. Regarding ILIEGIFFA, the IC50 in assay [1] was 0.15 nM.

In the case of ILIEGIFFV, the half-maximal inhibitory concentration (IC50) in assay [1] was 0.03 nM.

For ILIEGVFFA, in assay [1], the IC50 stood at 0.16 nM.

As to LLIEGIFFI, in assay [1], the IC50 was determined as 0.12 nM.

With “MILIEGIFFV [10-mer candidate peptide from ribonucleotide reductase subunit 2 (RNR2) of VZV]”, the “IFN-γ production (individual peptides)” value in assay [2] was “strongly induced IFN-γ production”.

For the origin of these results see publication PMC3968128, “Broadly Reactive Human CD8 T Cells that Recognize an Epitope Conserved between VZV, HSV and EBV” (PLoS Pathogens, 2014).
